Laboratory results reported in patent US11564392B2, “Methods of inactivation of viruses using n-methlyglucamide and its derivatives” (BAYER HEALTHCARE LLC, priority 2017, dated 2023).
Entries after “also recorded” stand apart in the source; their conditions may differ. Like-named read-outs stand apart in the source and are kept apart here.

What was measured:
[1] = 25° C.; cited from earlier work
[2] = type: physicochemical
Experimental: Each detergent was obtained as powder from the manufacturer and was appropriately weighed and allowed to dissolve in Milli-Q water. […] The detergents were stored in a dark container in 2-8° C. Table 2 lists the manufacturers of the detergent powders and the in-house preparation which are also detailed in the methods section. […] This occurrence has been observed by others as well and may have to do with the increasing fatty chain length that enhances the hydrophobicity thus decreasing the likelihood of solubility, especially in water (Gaber et al., Burczyk, 2007).

X-MuLV [3] = type: cell-based, xenotropic murine leukemia virus; settings: for X-MuLV inactivation (FIG. 4): 0.5×, 1×, 2× of the CMC, room temperature; for X-MuLV inactivation (FIG. 4) / X-MuLV inactivation (FIG. 5): within 30 minutes; for X-MuLV inactivation (FIG. 5): 1× and 2× of the CMC
BVDV = type: cell-based, bovine viral diarrhea virus; settings: for BVDV inactivation: Mega 10 0.2, 0.3, 0.4% (w/v), Mega 9 1.0% (w/v), 2.0° C.
X-MuLV [4] = assay: X-MuLV inactivation in rFVIII by methylglucamides with or without Tw20, TnBP or NaCl, TCID50 assay; type: cell-based, xenotropic murine leukemia virus
Experimental: Methylglucamides were tested with other compounds to determine potential synergistic effects on viral inactivation. […] Then, the titers of each samples or controls were assayed using a TCID50 assay previously described. For each experiment (FIGS. 15, 16 and 17), the controls consisted of rFVIII spiked with X-MuLV with no detergent, and the yielded titers within the expected range of about 6.5 log10 TCID50/ml.

PRV = type: cell-based, porcine pseudorabies virus
X-MuLV [5] = type: cell-based, xenotropic murine leukemia virus
[6] = target: T1, recombinant FVIII (rFVIII) (Homo sapiens, UniProt P00451); assay: Chromogenic assay to assess human Factor VIII activity after detergent incubation; type: biochemical; settings: 0.3% (w/v)
T1 construct: recombinant human factor VIII (rFVIII) (full length wildtype, Bayer in-house preparation); made in house
Experimental: A diluent control of rFVIII matrix spiked only with Milli-Q H2O was also prepared and incubated under the same conditions. Following the incubation, detergents and diluent control were diluted in 1× assay buffer along with chromogenic assay (Chromogenix COATEST SP4 FVIII Kit, Cat: 82409463) FVIII standard and controls to the appropriate levels. Thirty μL of each detergent, control, and standard were loaded onto a 96-well plate in triplicate. Chromogenic assay reagents were added according to the manufacturer's protocol and incubated at 37.0° C. and 5.0% CO2 for 8 minutes. Assay plate was measured for absorbance t 405 and 492 nm on a Molecular Devices SpectraMax M5 microplate reader. Data was analyzed using SoftMax Pro v5.
The principle of the assay involves a specific step in the blood clotting mechanism, in which Factor X is converted to Factor Xa leading to the hydrolysis of the chromogenic substrate. This reaction is dependent on the activity of Factor VIII (FVIII) and directly correlates to measurable color intensity.

[7] = rFVIII, 2° C., 30 min, Mega 8 1.81%, Mega 9 0.84%, Mega 10 0.20%, Mega 12 0.014% (w/v)
[8] = rFVIII, Room Temperature, 30 min, Mega 8 1.81%, Mega 9 0.45%, Mega 10 0.10%, Mega 12 0.014% (w/v)
[9] = 0.20% (w/v) Mega 10 or 0.71% (w/v) Mega 9, with or without NaCl
[10] = 0.3% (w/v), 2.0° C., 30 minutes

T1 sequence (P00451 20-2351): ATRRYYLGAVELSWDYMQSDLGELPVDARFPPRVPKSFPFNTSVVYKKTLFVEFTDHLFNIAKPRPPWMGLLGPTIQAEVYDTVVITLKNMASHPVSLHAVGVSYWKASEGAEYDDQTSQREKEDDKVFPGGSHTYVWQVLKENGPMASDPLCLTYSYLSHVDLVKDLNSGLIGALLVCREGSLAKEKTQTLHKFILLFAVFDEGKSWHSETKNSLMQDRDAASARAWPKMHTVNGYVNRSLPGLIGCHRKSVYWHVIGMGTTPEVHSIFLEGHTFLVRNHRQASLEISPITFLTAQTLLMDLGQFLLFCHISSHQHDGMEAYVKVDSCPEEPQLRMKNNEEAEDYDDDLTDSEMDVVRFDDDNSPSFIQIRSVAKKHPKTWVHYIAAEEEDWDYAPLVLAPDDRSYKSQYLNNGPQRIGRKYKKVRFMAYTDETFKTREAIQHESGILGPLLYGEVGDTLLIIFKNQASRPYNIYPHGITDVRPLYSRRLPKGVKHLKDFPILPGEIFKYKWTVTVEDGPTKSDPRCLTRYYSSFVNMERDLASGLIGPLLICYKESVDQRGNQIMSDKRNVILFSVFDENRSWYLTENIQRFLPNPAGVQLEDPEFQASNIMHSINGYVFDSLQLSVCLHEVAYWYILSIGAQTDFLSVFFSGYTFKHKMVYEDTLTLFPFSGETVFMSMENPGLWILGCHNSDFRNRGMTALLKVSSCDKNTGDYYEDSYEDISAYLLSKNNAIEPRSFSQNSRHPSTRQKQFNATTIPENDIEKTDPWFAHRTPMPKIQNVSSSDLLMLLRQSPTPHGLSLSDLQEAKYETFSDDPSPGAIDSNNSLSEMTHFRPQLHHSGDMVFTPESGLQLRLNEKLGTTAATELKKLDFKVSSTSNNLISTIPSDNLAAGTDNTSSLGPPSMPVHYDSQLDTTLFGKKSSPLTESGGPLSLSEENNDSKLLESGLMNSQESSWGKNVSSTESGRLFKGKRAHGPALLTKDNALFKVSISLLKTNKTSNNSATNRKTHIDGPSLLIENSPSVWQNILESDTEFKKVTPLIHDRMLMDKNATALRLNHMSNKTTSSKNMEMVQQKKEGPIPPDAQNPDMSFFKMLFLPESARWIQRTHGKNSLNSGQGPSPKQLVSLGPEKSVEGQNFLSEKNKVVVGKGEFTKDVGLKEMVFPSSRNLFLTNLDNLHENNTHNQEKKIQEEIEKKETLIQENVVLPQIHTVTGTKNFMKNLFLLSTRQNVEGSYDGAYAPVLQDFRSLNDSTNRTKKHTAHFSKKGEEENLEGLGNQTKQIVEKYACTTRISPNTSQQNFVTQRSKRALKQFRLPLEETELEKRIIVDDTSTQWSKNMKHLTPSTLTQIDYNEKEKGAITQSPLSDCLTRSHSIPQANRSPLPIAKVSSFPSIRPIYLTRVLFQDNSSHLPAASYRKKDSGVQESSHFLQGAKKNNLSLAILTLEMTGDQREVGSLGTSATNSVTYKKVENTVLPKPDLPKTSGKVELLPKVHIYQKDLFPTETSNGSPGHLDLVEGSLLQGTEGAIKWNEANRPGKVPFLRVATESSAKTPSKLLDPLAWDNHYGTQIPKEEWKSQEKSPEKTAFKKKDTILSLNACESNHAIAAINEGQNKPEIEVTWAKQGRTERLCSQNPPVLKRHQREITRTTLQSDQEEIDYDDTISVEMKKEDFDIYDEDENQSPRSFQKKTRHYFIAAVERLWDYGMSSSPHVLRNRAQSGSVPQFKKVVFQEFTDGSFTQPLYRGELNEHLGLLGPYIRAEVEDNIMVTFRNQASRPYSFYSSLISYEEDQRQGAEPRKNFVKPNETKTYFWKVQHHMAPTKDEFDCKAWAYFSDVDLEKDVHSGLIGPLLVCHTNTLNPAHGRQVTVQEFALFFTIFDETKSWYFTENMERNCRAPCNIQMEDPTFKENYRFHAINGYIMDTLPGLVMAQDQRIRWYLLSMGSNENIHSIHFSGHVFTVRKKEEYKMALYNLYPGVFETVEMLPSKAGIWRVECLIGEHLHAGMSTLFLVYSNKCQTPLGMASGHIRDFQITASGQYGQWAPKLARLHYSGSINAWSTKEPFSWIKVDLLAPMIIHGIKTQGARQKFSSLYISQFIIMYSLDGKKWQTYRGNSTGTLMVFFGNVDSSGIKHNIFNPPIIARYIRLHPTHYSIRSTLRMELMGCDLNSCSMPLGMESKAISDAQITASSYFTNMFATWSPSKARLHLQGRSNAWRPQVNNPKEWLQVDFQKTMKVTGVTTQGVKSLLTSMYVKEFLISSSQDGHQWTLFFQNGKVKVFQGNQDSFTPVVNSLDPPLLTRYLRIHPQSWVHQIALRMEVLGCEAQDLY
T1 sequence (P00451 1668-2351 limits assumed): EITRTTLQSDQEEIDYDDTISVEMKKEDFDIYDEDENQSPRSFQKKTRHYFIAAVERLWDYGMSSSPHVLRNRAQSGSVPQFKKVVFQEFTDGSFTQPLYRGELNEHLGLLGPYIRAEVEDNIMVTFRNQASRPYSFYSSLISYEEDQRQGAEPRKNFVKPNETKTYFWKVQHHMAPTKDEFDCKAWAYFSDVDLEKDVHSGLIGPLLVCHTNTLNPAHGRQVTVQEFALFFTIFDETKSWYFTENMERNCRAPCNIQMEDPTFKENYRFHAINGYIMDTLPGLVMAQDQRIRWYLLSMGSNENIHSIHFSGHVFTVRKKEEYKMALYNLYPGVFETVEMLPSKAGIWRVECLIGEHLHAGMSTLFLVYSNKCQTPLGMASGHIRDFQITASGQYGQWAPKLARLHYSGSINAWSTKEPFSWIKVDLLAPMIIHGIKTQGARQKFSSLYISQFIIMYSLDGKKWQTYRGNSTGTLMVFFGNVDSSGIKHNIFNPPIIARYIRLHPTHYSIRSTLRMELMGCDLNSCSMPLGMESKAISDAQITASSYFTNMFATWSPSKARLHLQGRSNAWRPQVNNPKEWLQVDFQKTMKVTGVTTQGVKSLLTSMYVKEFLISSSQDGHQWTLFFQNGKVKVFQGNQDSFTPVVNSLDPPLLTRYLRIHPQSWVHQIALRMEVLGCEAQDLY

Compound	CMC [1] [mM]	solubilization of 5% (w/v) detergent in water [2]	X-MuLV inactivation (FIG. 4) (X-MuLV [3])	X-MuLV inactivation (X-MuLV [3]; 0.5×CMC, 2° C., 30 minutes)	X-MuLV inactivation (X-MuLV [3]; 0.5×CMC, 25° C., 30 minutes)	X-MuLV inactivation (FIG. 5) (X-MuLV [3]; 2.0° C.)	Infection observed (X-MuLV [3]; [7])	Log Reduction Factor (LRF) (X-MuLV [3]; [7])	Infection observed (X-MuLV [3]; [8])	Log Reduction Factor (LRF) (X-MuLV [3]; [8])	BVDV inactivation (BVDV; 30 minutes)	X-MuLV inactivation (X-MuLV [4]; [9])	X-MuLV inactivation (X-MuLV [3]; [10])	also measured
CCCCCCCC(=O)N(C)C[C@H](O)[C@@H](O)[C@H](O)[C@H](O)CO [Mega 8, octanoyl-N-methylglucamide]	58	readily solubilized in water at room temperature	completely inactivated	No significant inactivation	No significant inactivation	completely inactivated	No	≥4.37	No	≥4.32				
CCCCCCCCC(=O)N(C)C[C@H](O)[C@@H](O)[C@H](O)[C@H](O)CO [Mega 9, nonaoyl-N-methylglucamide]	19 to 25	readily solubilized in water at room temperature	completely inactivated	partially	completely	completely inactivated	No	≥4.37	No	≥4.32	completely inactivated	significantly inactivated		time to inactivate BVDV to the LOD (BVDV; 1.0% (w/v)): ≤ 30 min; BVDV titer (detection limit) (BVDV; 1.0% (w/v), 2.0±1.0° C., 30 minutes): ≤ 2.03 Log10 TCID50/mL
P-tert-Octylphenoxy) polyethoxyethanol [Triton X-100, reference compound]													complete X-MuLV inactivation; also recorded: inactivated X-MuLV completely	X-MuLV titer after treatment (limit of detection) (X-MuLV [3]; [10]): ≤ 2.54 TCID50/mL
CCCCCCCCCCCC(=O)N(C)CC(O)C(O)C(O)C(O)CO (stereo not shown) [Mega 12, dodecanoyl-N-methylglucamide]	0.35	not able to dissolve water in a 37 °C water bath	completely inactivated	No significant inactivation	No significant inactivation	completely inactivated	No	≥4.37	No	≥4.32				solubilization of 0.15% stock in water [2]: able to come into solution when placed in a 60 °C water bath within 15 minutes
CCCCCCCCCC(=O)N(C)C[C@H](O)[C@@H](O)[C@H](O)[C@H](O)CO [Mega 10, decanoyl-N-methylglucamide]	6 to 7	solubilize within 15 minutes	completely inactivated	partially	completely	completely inactivated	No	≥4.37	No	≥4.32	completely inactivated	significantly inactivated	complete X-MuLV inactivation; also recorded: inactivated X-MuLV completely	PRV titer (limit of detection) (PRV; 0.2 and 0.3%, 2.0±1.0° C., 15 minutes): ≤ 2.03 Log10 TCID50/mL; time to inactivate PRV to the limit of detection (PRV; 0.2 or 0.3 (w/v), 2.0° C.): ≤ 15 min; X-MuLV titer (limit of detection) (X-MuLV [5]): ≤ 2.03 Log10 TCID50/mL; X-MuLV inactivation (X-MuLV [5]; 0.2, 0.3, 0.4% (w/v) in human IgG and human plasma protein solutions, 2.0° C., 30 minutes): completely inactivated; effect on rFVIII activity ([6]; 2.0° C., 2 hour incubation): maintains its activity; also recorded: no effect on the activity of the protein drug; average activity of rFVIII ([6]; 2.0±1.0° C., 2 hours): 52.26 IU/mL; speed of BVDV inactivation (BVDV; 0.2%): immediately after mixing; Infection Observed (X-MuLV [3]): No; Infection observed (X-MuLV [3]): No; LRF (X-MuLV [3]): ≥ 24.45; X-MuLV inactivation kinetics (X-MuLV [3]): immediate decrease (complete inactivation); also recorded: immediately inactivated; X-MuLV titer after treatment (limit of detection) (X-MuLV [3]): ≤ 2.03 TCID50/mL; lowest concentration to quickly and completely inactivate X-MuLV (X-MuLV [3]): approximately 0.23%; time to reach limit of detection (LOD) (X-MuLV [3]): ≤ 5 min; virus titer (X-MuLV [3]): about 2.62 Log10 TCID50/mL; virus titer (complete inactivation) (X-MuLV [3]): ≤ 2.03 Log10 TCID50/mL; X-MuLV inactivation (X-MuLV [4]; 0.30% (w/v) M10 alone, +0.06% (w/v) Tw20, or +0.30% (w/v) TnBP, within 30 min): completely inactivated
